Measurements reported in ChEMBL document CHEMBL1201862, “PubChem BioAssay data set” (2004).
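Results reflect a 48-hour exposure of cells in 96-well plates to compound at five concentrations. The concentration for 50% growth inhibition is given as GI50.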 Activity calls are given as the source filed them. No stated cut-off is given here; in the data, active = GI50 up to about 1.1 µM and inactive = higher.

Tests used:
Assay in all cases: DTP human tumour cell line panel, 48 h
[1] = system: OVCAR-8
[2] = system: SK-MEL-2
[3] = system: M14
[4] = system: A498
[5] = system: HCC 2998
[6] = system: SK-MEL-28
[7] = system: OVCAR-3
[8] = system: NCI-H460
[9] = system: SNB-19
[10] = system: HL-60
[11] = system: EKVX
[12] = system: SF-539
[13] = system: SR
[14] = system: TK-10
[15] = system: LXFL 529
[16] = system: ACHN
[17] = system: OVCAR-5
[18] = system: UACC-62

Measured: GI50

O=C(CC(=O)c1ccccc1)C(=O)NC12CC3CC(CC(C3)C1)C2
inactive: [1] > 100 µM | [2] > 100 µM | [3] > 100 µM | [4] > 100 µM | [5] > 100 µM | [6] > 100 µM | [7] > 100 µM | [8] > 40.7 µM | [9] > 100 µM | [10] > 48.5 µM | [11] > 100 µM | [12] > 100 µM | [13] > 100 µM | [14] > 100 µM | [15] > 100 µM | [16] > 100 µM | [17] > 100 µM | [18] > 100 µM

COc1ccccc1N1C(=O)C2c3[nH]c4ccccc4c3C3CCC(C(C)(C)C)CC3C2C1=O (stereo not given)
inactive: [1] > 100 µM | [3] > 100 µM | [4] > 100 µM | [5] > 100 µM | [6] > 100 µM | [9] > 100 µM | [10] > 100 µM | [11] > 100 µM | [12] > 100 µM | [13] 97.1 µM | [15] > 100 µM | [16] > 100 µM | [18] > 100 µM

CS(=O)(=O)NNS(=O)(=O)c1ccc(F)cc1
inactive: [1] > 100 µM | [2] > 100 µM | [3] > 100 µM | [4] > 100 µM | [5] > 100 µM | [7] > 100 µM | [8] > 100 µM | [9] > 100 µM | [10] > 100 µM | [11] > 100 µM | [12] > 100 µM | [13] > 100 µM | [14] > 100 µM | [15] > 100 µM | [16] > 100 µM | [18] > 100 µM

COC(=N)/C(=C1\OC(=N)C(c2ccc(Cl)cc2)=C1O)c1ccc(Cl)cc1
inactive: [1] > 100 µM | [2] > 100 µM | [3] > 100 µM | [4] > 100 µM | [5] > 100 µM | [6] > 100 µM | [7] > 100 µM | [8] > 100 µM | [9] > 100 µM | [10] 81.7 µM | [11] > 100 µM | [12] > 100 µM | [13] > 100 µM | [14] > 100 µM | [15] 74.3 µM | [16] > 100 µM | [17] > 100 µM | [18] > 100 µM

CC(=O)/C(=C\c1ccccc1)C(=O)Nc1ccccc1
inactive: [1] > 100 µM | [2] > 100 µM | [3] > 100 µM | [5] > 100 µM | [7] > 100 µM | [8] > 100 µM | [9] > 100 µM | [10] > 100 µM | [11] > 100 µM | [12] > 100 µM | [13] > 100 µM | [14] > 100 µM | [15] > 100 µM | [16] > 100 µM | [17] > 100 µM | [18] > 100 µM

Cc1cc(C)nc(NS(=O)(=O)c2ccc(Nc3c4ccc(Cl)cc4nc4c(C(=O)Nc5ccc(S(N)(=O)=O)cc5)cccc34)cc2)n1
inactive: [1] 16.9 µM | [3] 17.4 µM | [4] 14.8 µM | [5] 16.6 µM | [6] 33.8 µM | [7] 15.5 µM | [8] 17.1 µM | [9] 24.6 µM | [11] 21 µM | [12] 17.2 µM | [13] 16.6 µM | [14] 36.3 µM | [15] 23.8 µM | [16] 32.1 µM | [17] 14.7 µM | [18] 25 µM

CCCC(C(=O)OC)C1N/C(=N/C#N)N(Cc2ccccc2)C1=O (stereo not given)
inactive: [1] > 100 µM | [2] > 100 µM | [3] > 100 µM | [5] > 100 µM | [6] > 100 µM | [7] > 100 µM | [8] > 100 µM | [9] > 100 µM | [10] > 100 µM | [11] > 100 µM | [13] 91.2 µM | [14] > 100 µM | [15] > 100 µM | [16] > 100 µM | [17] > 100 µM | [18] > 100 µM

COc1ccc2c(c1)[n+]([O-])c(-c1ccc(Cl)c(Cl)c1)c(N)[n+]2[O-]
inactive: [1] 34.9 µM | [2] 19.9 µM | [3] 25.7 µM | [4] 47.5 µM | [6] 27 µM | [7] 26.1 µM | [8] 25.1 µM | [9] > 100 µM | [10] 23.7 µM | [11] 33.6 µM | [12] 23 µM | [13] 45 µM | [15] 35.6 µM | [16] 42.6 µM | [17] 36.8 µM

CCSc1nc2n(c(=S)n1)CCN2C
inactive: [1] 20.7 µM | [2] 19.1 µM | [3] 15.8 µM | [4] 19.3 µM | [5] 16.3 µM | [6] 20.1 µM | [7] 20 µM | [8] 21.1 µM | [9] 20.6 µM | [10] 16.4 µM | [11] 28.4 µM | [12] 19.2 µM | [13] 7.67 µM | [15] 13.4 µM | [16] 19.1 µM | [17] 21.4 µM | [18] 12.1 µM
